Legend:
pigweed = experiment: Test B pre-/postemergence herbicide test; format: in vivo, Amaranthus retroflexus; details: for Pigweed plant response rating: postemergence; for Plant response rating, Pigweed: preemergence
Outline: (§1)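 Herbicidal effect was judged by eye on a 0–100 scale after plants stood 13 to 15 days in the greenhouse following pre- or postemergence treatment with surfactant-containing formulations.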

giant foxtail = experiment: Test B pre-/postemergence herbicide test; format: in vivo, Setaria faberi; details: for Foxtail, Giant plant response rating: postemergence
Outline: as §1

barnyardgrass [1] = experiment: Test B flooded paddy test; format: in vivo, Echinochloa crus-galli; details: 1000 g ai/ha, scale 0 to 100 (0 no effect, 100 complete control)
Outline: (§2)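 Visual ratings, 0 (no effect) to 100 (complete control), made versus controls after 13–15 d greenhouse. Paddy plants treated at 2-leaf stage; postemergence plants at 1- to 4-leaf stage, 2–18 cm tall.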

rice [2] = experiment: Test B flooded paddy test; format: in vivo, Oryza sativa; details: 1000 g ai/ha, scale 0 to 100 (0 no effect, 100 complete control)
Outline: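 Treated at 2-leaf (paddy) or 1–4-leaf, 2–18 cm (postemergence); greenhouse 13–15 d; visual score vs control, 0 none to 100 complete control; dash = not tested.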

wild oat = experiment: Test B postemergence herbicide test; format: in vivo, Avena fatua; details: postemergence
Outline: (§3)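 After treating 2-leaf paddy plants or 2–18 cm postemergence plants (1 to 4 leaves) with formulated chemical, researchers kept them in a greenhouse for 13–15 days. Effects were judged visually versus controls: 0 indicates none, 100 total control.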

[3] = system: smallflower umbrella sedge; experiment: Test C flooded paddy test; format: in vivo, Cyperus difformis; details: for Plant response rating, Sedge, Umbrella: visual rating after 12 to 14 days
large crabgrass = experiment: Test B pre-/postemergence herbicide test; format: in vivo, Digitaria sanguinalis; details: for Crabgrass, Large plant response rating: postemergence
Outline: as §1

rice [4] = experiment: Test B pre-/postemergence herbicide test; format: in vivo, Oryza sativa; details: preemergence
Outline: as §1

barnyardgrass [5] = experiment: Test B pre-/postemergence herbicide test; format: in vivo, Echinochloa crus-galli; details: for Barnyardgrass plant response rating: postemergence
Outline: (§4)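 Visual rating, 0 (no effect) to 100 (complete control), versus untreated controls after 13–15 d in greenhouse. Pre- and postemergence applications (postemergence plants 2–18 cm, 1–4 leaves); flooded paddy arm at 2-leaf stage. Compounds in non-phytotoxic solvent plus surfactant.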

morningglory = experiment: Test B pre-/postemergence herbicide test; format: in vivo, Ipomoea coccinea; details: for Morningglory plant response rating: postemergence
Outline: as §4

corn = experiment: Test B pre-/postemergence herbicide test; format: in vivo, Zea mays; details: for Corn plant response rating: postemergence
Outline: as §1

[6] = system: small flower umbrella sedge; experiment: Test B flooded paddy test; format: in vivo, Cyperus difformis; details: 1000 g ai/ha, scale 0 to 100 (0 no effect, 100 complete control)
Outline: as §2

velvetleaf = experiment: Test B pre-/postemergence herbicide test; format: in vivo, Abutilon theophrasti; details: for Velvetleaf plant response rating: postemergence
Outline: as §1

lambsquarters = experiment: Test B pre-/postemergence herbicide test; format: in vivo, Chenopodium album; details: for Lambsquarters plant response rating: postemergence; for Plant response rating, Lambsquarters: preemergence
Outline: as §1

barnyardgrass [7] = experiment: Test C flooded paddy test; format: in vivo, Echinochloa crus-galli; details: for Plant response rating, Barnyardgrass: visual rating after 12 to 14 days
Outline: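 Weeds and wheat were sprayed after emergence, at a height of 2 to 18 cm (1–4 leaves), and paddy barnyardgrass was flooded and treated at two leaves. Assessment took place 12–14 days later in the greenhouse on a 0-to-100 visual control scale. A dash means no result was obtained.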

Surinam grass = experiment: Test B pre-/postemergence herbicide test; format: in vivo, Urochloa decumbens; details: for Surinam Grass plant response rating: postemergence
Outline: as §1

ducksalad [8] = experiment: Test B flooded paddy test; format: in vivo, Heteranthera limosa; details: 1000 g ai/ha, scale 0 to 100 (0 no effect, 100 complete control)
Outline: as §2

rice [9] = experiment: Test C flooded paddy test; format: in vivo, Oryza sativa; details: for Plant response rating, Rice: visual rating after 12 to 14 days
Outline: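 Postemergence sprays applied to plants 2 to 18 cm tall (1- to 4-leaf stage); paddy species grown to 2-leaf stage under flooding. After 12 to 14 days in greenhouse, visual rating versus untreated controls on 0–100 scale (0 no effect, 100 complete control).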

cocklebur = experiment: Test B pre-/postemergence herbicide test; format: in vivo, Xanthium strumarium; details: for Cocklebur plant response rating: postemergence
Outline: as §4

blackgrass = experiment: Test B postemergence herbicide test; format: in vivo, Alopecurus myosuroides; details: postemergence
Outline: as §2

wheat = experiment: Test B postemergence herbicide test; format: in vivo, Triticum aestivum; design: key to Wheat plant response rating: 0 = no effect, 100 = complete control; details: postemergence
Outline: as §3

ducksalad [10] = experiment: Test C flooded paddy test; format: in vivo, Heteranthera limosa; details: for Plant response rating, Ducksalad: visual rating after 12 to 14 days
[11] = 125 g ai/ha, visual rating, scale 0 (no effect) to 100 (complete control)
[12] = 125 g ai/ha, 0 to 100 scale, 0 is no effect, 100 is complete control
[13] = preemergence, 125 g ai/ha, 0 to 100 scale, 0 is no effect, 100 is complete control
[14] = 62 g ai/ha, scale 0 to 100 (0 no effect, 100 complete control)
[15] = 125 g ai/ha, scale of 0 to 100, 0 is no effect, 100 is complete control
[16] = 250 g ai/ha, scale 0 to 100 (0 no effect, 100 complete control)
[17] = 500 g ai/ha, scale 0 to 100 (0 no effect, 100 complete control)
[18] = 500 g ai/ha, visual rating, 0 = no effect, 100 = complete control
[19] = 500 g ai/ha, scale 0 to 100, 0 is no effect, 100 is complete control
[20] = 125 g ai/ha, 0 = no effect, 100 = complete control, preemergence
[21] = 500 g ai/ha, visual rating, 0 = no effect, 100 = complete control, preemergence
[22] = 125 g ai/ha, scale 0 to 100 (0 no effect, 100 complete control)
[23] = 250 g ai/ha, scale of 0 to 100, 0 is no effect, 100 is complete control
[24] = 500 g ai/ha, visual rating, scale 0 (no effect) to 100 (complete control)

CCn1nc(C(C)(C)C)cc1C(=O)Nc1cccc(C(=O)N(C)C)c1 [Compound 49]
25: Rice plant response rating (rice [9]; [15])
45: Sedge, Umbrella plant response rating [3, 14] | Sedge, Umbrella plant response rating [3, 15] | Barnyardgrass plant response rating (barnyardgrass [7]; [14])
0: Foxtail, Giant plant response rating (giant foxtail; 31 g ai/ha, scale 0 to 100) | Plant response rating, Foxtail, Giant (giant foxtail; [13]) | Oat, Wild plant response rating (wild oat; 31 g ai/ha, scale 0 to 100) | Morningglory plant response rating (morningglory; [11]) | Morningglory plant response rating (morningglory; 31 g ai/ha, scale 0 to 100) | Plant response rating, Morningglory (morningglory; [13]) | Plant response rating, Corn (corn; [13]) | Plant response rating, Velvetleaf (velvetleaf; [13]) | Plant response rating, Cocklebur (cocklebur; [13]) | Blackgrass plant response rating (blackgrass; [11]) | Blackgrass plant response rating (blackgrass; 31 g ai/ha, scale 0 to 100) | Wheat plant response rating (wheat; [11]) | Wheat plant response rating (wheat; 31 g ai/ha, scale 0 to 100) | Ducksalad plant response rating (ducksalad [10]; [14])
30: Pigweed plant response rating (pigweed; [11]) | Rice plant response rating (rice [2]; visual rating, 13 to 15 days) | Barnyardgrass plant response rating (barnyardgrass [5]; [11]) | Plant response rating, Barnyardgrass (barnyardgrass [5]; [13]) | Velvetleaf plant response rating (velvetleaf; [11])
50: Lambsquarters plant response rating (lambsquarters; [11]) | Ducksalad plant response rating (ducksalad [10]; [15])
60: Barnyardgrass plant response rating (barnyardgrass [7]; [15])
15: Rice plant response rating (rice [9]; [14])
90: Plant response rating, Pigweed (pigweed; [12]) | Plant response rating, Rice (rice [9]; [17])
10: Pigweed plant response rating (pigweed; 31 g ai/ha, scale 0 to 100) | Foxtail, Giant plant response rating (giant foxtail; [11]) | Oat, Wild plant response rating (wild oat; [11]) | Crabgrass, Large plant response rating (large crabgrass; [11]) | Crabgrass, Large plant response rating (large crabgrass; 31 g ai/ha, scale 0 to 100) | Barnyardgrass plant response rating (barnyardgrass [5]; 31 g ai/ha, scale 0 to 100) | Corn plant response rating (corn; 31 g ai/ha, scale 0 to 100) | Velvetleaf plant response rating (velvetleaf; 31 g ai/ha, scale 0 to 100) | Surinam Grass plant response rating (Surinam grass; [11]) | Surinam Grass plant response rating (Surinam grass; 31 g ai/ha, scale 0 to 100) | Plant response rating, Surinam Grass (Surinam grass; [13]) | Cocklebur plant response rating (cocklebur; 31 g ai/ha, scale 0 to 100)
20: Plant response rating, Crabgrass, Large (large crabgrass; [13]) | Corn plant response rating (corn; [11]) | Lambsquarters plant response rating (lambsquarters; 31 g ai/ha, scale 0 to 100) | Cocklebur plant response rating (cocklebur; [11])
70: Barnyardgrass plant response rating (barnyardgrass [1]; visual rating, 13 to 15 days) | Plant response rating, Lambsquarters (lambsquarters; [12]) | Plant response rating, Barnyardgrass (barnyardgrass [7]; [16]) | Plant response rating, Rice (rice [9]; [16])
80: Plant response rating, Sedge, Umbrella [3, 16] | Plant response rating, Sedge, Umbrella [3, 17] | Sedge, Umbrella plant response rating ([6]; visual rating, 13 to 15 days) | Plant response rating, Barnyardgrass (barnyardgrass [7]; [17]) | Ducksalad plant response rating (ducksalad [8]; visual rating, 13 to 15 days) | Plant response rating, Ducksalad (ducksalad [10]; [16]) | Plant response rating, Ducksalad (ducksalad [10]; [17])
40: Plant response rating, Rice (rice [4]; [12])

CCn1nc(C(C)(C)C)cc1C(=O)Nc1cncc(C(=O)N2CC=CC2)c1 [Compound 260]
10: Crabgrass, Large plant response rating (large crabgrass; [19]) | Morningglory plant response rating (morningglory; [19]) | Plant response rating, Velvetleaf (velvetleaf; [21]) | Lambsquarters plant response rating (lambsquarters; [11]) | Plant response rating, Surinam Grass (Surinam grass; [21]) | Cocklebur plant response rating (cocklebur; [11]) | Blackgrass plant response rating (blackgrass; [11]) | Blackgrass plant response rating (blackgrass; [24])
90: Ducksalad plant response rating (ducksalad [8])
40: Sedge, Umbrella plant response rating [3, 22] | Wheat plant response rating (wheat; [19])
35: Plant response rating, Barnyardgrass (barnyardgrass [7]; [17])
60: Barnyardgrass plant response rating (barnyardgrass [1])
65: Sedge, Umbrella plant response rating [3, 23] | Plant response rating, Sedge, Umbrella [3, 17]
15: Plant response rating, Rice (rice [9]; [17])
75: Ducksalad plant response rating (ducksalad [10]; [23])
30: Plant response rating, Foxtail, Giant (giant foxtail; [21]) | Oat, Wild plant response rating (wild oat; [19]) | Plant response rating, Rice (rice [4]; [18]) | Lambsquarters plant response rating (lambsquarters; [19])
85: Plant response rating, Ducksalad (ducksalad [10]; [17])
0: Foxtail, Giant plant response rating (0 to 100 scale) (giant foxtail; [20]) | Foxtail, Giant plant response rating (giant foxtail; [11]) | Foxtail, Giant plant response rating (giant foxtail; [19]) | Sedge, Umbrella plant response rating ([3]; 62 g ai/ha, scale 0 to 100) | Crabgrass, Large plant response rating (0 to 100 scale) (large crabgrass; [20]) | Crabgrass, Large plant response rating (large crabgrass; [11]) | Rice plant response rating (0 to 100 scale) (rice [4]; 125 g ai/ha, 0 = no effect, 100 = complete control) | Barnyardgrass plant response rating (0 to 100 scale) (barnyardgrass [5]; [20]) | Barnyardgrass plant response rating (barnyardgrass [5]; [11]) | Barnyardgrass plant response rating (barnyardgrass [5]; [24]) | Morningglory plant response rating (0 to 100 scale) (morningglory; [20]) | Plant response rating, Morningglory (morningglory; [21]) | Morningglory plant response rating (morningglory; [11]) | Corn plant response rating (0 to 100 scale) (corn; [20]) | Plant response rating, Corn (corn; [21]) | Corn plant response rating (corn; [11]) | Corn plant response rating (corn; [19]) | Velvetleaf plant response rating (0 to 100 scale) (velvetleaf; [20]) | Velvetleaf plant response rating (velvetleaf; [11]) | Barnyardgrass plant response rating (barnyardgrass [7]; [14]) | Barnyardgrass plant response rating (barnyardgrass [7]; [22]) | Surinam Grass plant response rating (0 to 100 scale) (Surinam grass; [20]) | Surinam Grass plant response rating (Surinam grass; [11]) | Rice plant response rating (rice [9]; 62 g ai/ha, scale 0 to 100) | Rice plant response rating (rice [9]; [22]) | Rice plant response rating (rice [9]; [23]) | Cocklebur plant response rating (0 to 100 scale) (cocklebur; [20]) | Plant response rating, Cocklebur (cocklebur; [21]) | Ducksalad plant response rating (ducksalad [10]; 62 g ai/ha, scale 0 to 100)
100: Plant response rating, Pigweed (pigweed; [18]) | Plant response rating, Lambsquarters (lambsquarters; [18])
70: Pigweed plant response rating (pigweed; [19]) | Rice plant response rating (rice [2]) | Plant response rating, Barnyardgrass (barnyardgrass [5]; [21]) | Sedge, Umbrella plant response rating [6] | Ducksalad plant response rating (ducksalad [10]; [22])
20: Pigweed plant response rating (pigweed; [11]) | Oat, Wild plant response rating (wild oat; [11]) | Velvetleaf plant response rating (velvetleaf; [19]) | Barnyardgrass plant response rating (barnyardgrass [7]; [23]) | Surinam Grass plant response rating (Surinam grass; [19]) | Cocklebur plant response rating (cocklebur; [24]) | Wheat plant response rating (wheat; [11])

— patent US20060069132A1, “Azolecarboxamide herbicides” (priority 2004, published 2006)
